Source: US4128629A, “Extraction-free cortisol assay” (Corning Glass Works, priority 1977, dated 1978)
Values joined by “and” are separate entries in the source; they are usually repeats but may differ in a detail not shown here. Identical values can stand only once.

Target: T1, transcortin (TC) (Homo sapiens, UniProt P08185)
T1 sequence (P08185 23-405): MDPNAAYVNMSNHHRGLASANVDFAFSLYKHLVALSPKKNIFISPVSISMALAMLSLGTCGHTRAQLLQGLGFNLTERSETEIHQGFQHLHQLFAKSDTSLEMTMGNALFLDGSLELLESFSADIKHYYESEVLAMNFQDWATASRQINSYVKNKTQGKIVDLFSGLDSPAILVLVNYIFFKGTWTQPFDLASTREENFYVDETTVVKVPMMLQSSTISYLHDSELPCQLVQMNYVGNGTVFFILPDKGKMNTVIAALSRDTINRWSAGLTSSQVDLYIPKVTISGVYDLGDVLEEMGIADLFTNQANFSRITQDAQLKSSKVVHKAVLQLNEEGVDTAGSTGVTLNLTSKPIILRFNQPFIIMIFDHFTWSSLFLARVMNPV
Assay: Cortisol released from serum sample (release from TC) by ANS and pH, compared with heat denaturation
Conditions: typical patient serum samples; one value per patient sample; compared with heating at 100° C. for about 10 min
Experimental: (§1) A lyophilized mixture of the tracer (about 50,000 DPM), 200 μg of ANS, and PBS is reconstituted to a 100 μl solution with water in an identified glass test tube to which is pipetted a […] serum sample having an unknown cortisol concentration. A non-interferring red dye such as Durkees Staff Brand may be included with the tracer solution to indicate that presence of the tracer.
Then, a 1 ml suspension of the immobilized antibodies (0.20 mg of anti-cortisol antibodies chemically coupled via N-hydroxysuccinimide linkage to silanized glass particles having an average particle size of about 1.7 microns is pipetted into the tube. The tube is vortexed for 2 or 3 seconds, allowing the composite of immobilized antibodies to be suspended. The reaction tube is incubated for about 1 hour at room temperature. The tube is then centrifuged for about 10 minutes at about 1400 to 1600 gravities (g). The relatively high density of the glass support facilitates this separation step. After centrifugation, the supernatant fluid is decanted and it or the composite at the bottom of the tube is counted for radioactivity. […]

SMILES	Cortisol Released
O=S(=O)(O)c1cccc2cccc(Nc3ccccc3)c12 [ANS, 8-anilino-1-naphthalene sulfonic acid]	59 ng/mL and 90 ng/mL and 270 ng/mL and 465 ng/mL

Tested on: anticortisol antibody composite
Assay: Cross-reactivity (specificity) of the solid phase cortisol radioimmunoassay
Assay type: binding
Design: key: ratio of cortisol to cross-reactant amount at 50% displacement
Conditions: ratio of the cortisol level to the steroid level at fifty percent relative displacement of labeled cortisol from immobilized anti-cortisol antibody
Experimental: as §1
Then, a 1 ml suspension of the immobilized antibodies (0.20 mg of anti-cortisol antibodies chemically coupled via N-hydroxysuccinimide linkage to silanized glass particles having an average particle size of about 1.7 microns is pipetted into the tube. The tube is vortexed for 2 or 3 seconds, allowing the composite of immobilized antibodies to be suspended. The reaction tube is incubated for about 1 hour at room temperature. The tube is then centrifuged for about 10 minutes at about 1400 to 1600 gravities (g). The relatively high density of the glass support facilitates this separation step. After centrifugation, the supernatant fluid is decanted and it or the composite at the bottom of the tube is counted for radioactivity. Since the amount of radioactivity in disintegrations per minute (DPM) of the initial tracer was known, the amount associated with the composite (that which competed with the unknown cortisol for sites on the composite), provides an indication of the cortisol present, using known correlation techniques.
The cross-reactivity of the anticortisol antibody composite for a substance may be expressed as the ratio of the amount of cortisol required to displace 50% of the labeled antigen from the antibody, to the amount of cross-reacting substance needed to cause a similar displacement.

SMILES	Ratio of Cross Reactivity
C[C@]12CCC(=O)C[C@@H]1CC[C@@H]1[C@@H]2CC[C@]2(C)[C@@H](O)CC[C@@H]12 [5α-Dihydrotestosterone]	0.007
C[C@]12CC[C@H]3[C@@H](CCC4=CC(=O)CC[C@@]43C)[C@@H]1CC[C@@H]2C(=O)CO [11-Desoxycorticosterone]	0.10
C[C@]12CCC(=O)C=C1CC[C@@H]1[C@@H]2CC[C@@]2(C)[C@H]1CC[C@]2(O)C(=O)CO [11-Desoxycortisol]	0.11
CC(=O)[C@@]1(O)CC[C@H]2[C@@H]3CCC4=CC(=O)CC[C@]4(C)[C@H]3CC[C@@]21C [17α-Hydroxyprogesterone]	0.026
C[C@@H](O)[C@H]1CC[C@H]2[C@@H]3CCC4=CC(=O)CC[C@]4(C)[C@H]3CC[C@]12C [20β-Hydroxyprogesterone]	0.026
C[C@]12CCC(=O)C=C1CC[C@@H]1[C@@H]2CC[C@]2(C)C(=O)CC[C@@H]12 [Androstenedione]	< 0.004
CC(C)CCC[C@@H](C)[C@H]1CC[C@H]2[C@@H]3CC=C4C[C@@H](O)CC[C@]4(C)[C@H]3CC[C@]12C [Cholesterol]	< 0.001
C[C@]12C[C@H](O)[C@H]3[C@@H](CCC4=CC(=O)CC[C@@]43C)[C@@H]1CC[C@@H]2C(=O)CO [Corticosterone]	0.12
C[C@]12CCC(=O)C=C1CC[C@@H]1[C@@H]2[C@@H](O)C[C@@]2(C)[C@H]1CC[C@]2(O)C(=O)CO [Cortisol]	1.00
C[C@]12CCC(=O)C=C1CC[C@@H]1[C@@H]2C(=O)C[C@@]2(C)[C@H]1CC[C@]2(O)C(=O)CO [Cortisone]	0.008
C[C@]12CC[C@@H]3c4ccc(O)cc4CC[C@H]3[C@@H]1CC[C@@H]2O [Estradiol-17β]	< 0.001
C[C@]12CC[C@@H]3c4ccc(O)cc4CC[C@H]3[C@@H]1C[C@@H](O)[C@@H]2O [Estriol]	< 0.001
C[C@]12CC[C@@H]3c4ccc(O)cc4CC[C@H]3[C@@H]1CCC2=O [Estrone]	< 0.001
C[C@]12C=CC(=O)C=C1CC[C@@H]1[C@@H]2[C@@H](O)C[C@@]2(C)[C@H]1CC[C@]2(O)C(=O)CO [Prednisolone]	0.10
C[C@]12C=CC(=O)C=C1CC[C@@H]1[C@@H]2C(=O)C[C@@]2(C)[C@H]1CC[C@]2(O)C(=O)CO [Prednisone]	0.004
CC(=O)[C@H]1CC[C@H]2[C@@H]3CCC4=CC(=O)CC[C@]4(C)[C@H]3CC[C@]12C [Progesterone]	0.041
C[C@]12CC[C@H]3[C@@H](CCC4=CC(=O)CC[C@@]43C)[C@@H]1CC[C@@H]2O [Testosterone]	0.002
C[C@]12CC[C@@H](O)C[C@H]1CC[C@@H]1[C@@H]2[C@@H](O)C[C@@]2(C)[C@H]1CC[C@]2(O)C(=O)CO [Tetrahydrocortisol]	< 0.001
